# Test results as given in patent US20230257372A1 (CHONG KUN DANG PHARMACEUTICAL CORP., priority 2020, published 2023).
# Key:
# [1] = target: T1, human recombinant HDAC1 (Homo sapiens, UniProt Q13547); experiment: HDAC1 enzyme activity inhibition (HDAC Fluorimetric Drug Discovery Kit); type: biochemical; conditions: human recombinant HDAC1; IC50 calculated with GraphPad Prism; read-out: HDAC1
# T1 construct: purchased Enzo Life Science, Inc. BML-SE456
# Procedure, shortened: (§1)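 Five-fold compound dilutions incubated with […] recombinant enzyme and 10 μM fluorogenic Fluor de Lys substrate, 60 min at 30° C. Fluor de Lys Developer II then added for 30 min to generate the fluorescent read-out.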
# [2] = target: T2, human recombinant HDAC6 (Homo sapiens, UniProt Q9UBN7); experiment: HDAC6 enzyme activity inhibition (HDAC Fluorimetric Drug Discovery Kit); type: biochemical; conditions: for HDAC6 selectivity (fold): HDAC1 IC50 / HDAC6 IC50; for IC50: human recombinant HDAC6, IC50 calculated with GraphPad Prism
# T2 construct: purchased Calbiochem Inc. 382180
# T2 sequence (Q9UBN7 1-1215): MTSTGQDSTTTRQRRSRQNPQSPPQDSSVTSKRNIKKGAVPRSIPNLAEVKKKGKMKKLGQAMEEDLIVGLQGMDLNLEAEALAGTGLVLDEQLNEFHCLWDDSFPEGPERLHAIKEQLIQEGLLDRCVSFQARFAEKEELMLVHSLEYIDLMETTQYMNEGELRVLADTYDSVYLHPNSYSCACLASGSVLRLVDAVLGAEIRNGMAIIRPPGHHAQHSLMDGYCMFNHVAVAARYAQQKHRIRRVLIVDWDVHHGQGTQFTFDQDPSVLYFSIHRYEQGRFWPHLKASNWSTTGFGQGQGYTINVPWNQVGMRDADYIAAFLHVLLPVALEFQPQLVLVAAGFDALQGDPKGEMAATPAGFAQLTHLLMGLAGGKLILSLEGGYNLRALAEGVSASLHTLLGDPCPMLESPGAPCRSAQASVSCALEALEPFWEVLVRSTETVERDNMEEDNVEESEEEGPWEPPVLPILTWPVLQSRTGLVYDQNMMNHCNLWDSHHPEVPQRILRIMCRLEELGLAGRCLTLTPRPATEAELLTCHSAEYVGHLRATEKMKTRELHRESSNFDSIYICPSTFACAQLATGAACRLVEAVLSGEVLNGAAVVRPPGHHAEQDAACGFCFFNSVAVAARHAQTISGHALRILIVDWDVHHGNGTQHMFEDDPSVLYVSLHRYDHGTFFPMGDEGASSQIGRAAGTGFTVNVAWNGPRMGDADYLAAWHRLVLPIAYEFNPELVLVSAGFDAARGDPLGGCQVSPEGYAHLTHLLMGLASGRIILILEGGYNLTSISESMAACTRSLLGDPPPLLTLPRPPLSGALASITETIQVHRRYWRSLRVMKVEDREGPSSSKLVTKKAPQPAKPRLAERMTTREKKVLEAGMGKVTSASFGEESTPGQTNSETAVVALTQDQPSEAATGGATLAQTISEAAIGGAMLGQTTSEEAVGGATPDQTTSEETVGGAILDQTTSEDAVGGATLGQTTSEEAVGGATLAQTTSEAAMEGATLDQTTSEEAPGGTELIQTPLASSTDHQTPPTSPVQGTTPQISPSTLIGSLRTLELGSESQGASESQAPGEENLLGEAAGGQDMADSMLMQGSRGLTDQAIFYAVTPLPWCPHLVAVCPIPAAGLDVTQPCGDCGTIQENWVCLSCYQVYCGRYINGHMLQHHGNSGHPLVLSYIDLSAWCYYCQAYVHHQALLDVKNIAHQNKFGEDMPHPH
# Procedure, shortened: as §1
# T1 sequence (Q13547 whole entry): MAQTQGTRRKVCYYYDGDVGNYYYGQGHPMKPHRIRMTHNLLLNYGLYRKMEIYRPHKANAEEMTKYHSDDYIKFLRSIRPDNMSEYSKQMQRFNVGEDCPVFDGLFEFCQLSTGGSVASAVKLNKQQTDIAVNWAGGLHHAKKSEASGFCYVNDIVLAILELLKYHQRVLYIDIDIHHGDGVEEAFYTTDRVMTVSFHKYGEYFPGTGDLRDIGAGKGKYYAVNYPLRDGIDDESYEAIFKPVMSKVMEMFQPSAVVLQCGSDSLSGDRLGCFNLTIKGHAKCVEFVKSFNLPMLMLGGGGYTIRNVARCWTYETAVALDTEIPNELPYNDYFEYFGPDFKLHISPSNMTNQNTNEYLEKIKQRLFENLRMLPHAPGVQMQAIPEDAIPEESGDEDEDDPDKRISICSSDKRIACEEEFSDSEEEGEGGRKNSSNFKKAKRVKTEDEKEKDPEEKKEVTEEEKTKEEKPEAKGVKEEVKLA
Structure (SMILES),IC50 [1] [nM],HDAC6 selectivity (fold) [2] [fold],IC50 [2] [nM]
"CC(C)(C)OC(=O)N1CCCC(c2cn(Cc3ccc(-c4nnc(C(F)F)o4)cn3)nn2)C1 (stereo not drawn) [Compound 3961, Tert-butyl 3-(1-((5-(5-(difluoromethyl)-1,3,4-oxadiazol-2-yl)pyridin-2-yl)methyl)-1H-1,2,3-triazol-4-yl)piperidin-1-carboxylate]",> 50000,386,129
"FC1CN(Cc2cccc(-c3cn(Cc4ccc(-c5nnc(C(F)F)o5)cn4)nn3)c2)C1 [Compound 3964, 2-(difluoromethyl)-5-(6-((4-(3-((3-fluoroazetidin-1-yl)methyl)phenyl)-1H-1,2,3-triazol-1-yl)methyl)pyridin-3-yl)-1,3,4-oxadiazole]",> 50000,1908,26.2
"FC(F)c1nnc(-c2ccc(Cn3cc(-c4cccc(CN5CC6(COC6)C5)c4)nn3)nc2)o1 [Compound 3965, 6-(3-(1-((5-(5-(difluoromethyl)-1,3,4-oxadiazol-2-yl)pyridin-2-yl)methyl)-1H-1,2,3-triazol-4-yl)benzyl)-2-oxa-6-azaspiro[3.3]heptane]",> 50000,1392,35.9
"FC(F)c1nnc(-c2ccc(Cn3cc(-c4cccc(CN5CCCC5)c4)nn3)nc2)o1 [Compound 3966, 2-(difluoromethyl)-5-(6-((4-(3-(pyrrolidin-1-ylmethyl)phenyl)-1H-1,2,3-triazol-1-yl)methyl)pyridin-3-yl)-1,3,4-oxadiazole]",> 50000,1694,29.5
"CC(C)(C)OC(=O)N1CCC(F)(c2cn(Cc3ccc(-c4nnc(C(F)F)o4)cn3)nn2)CC1 [Compound 3999, Tert-butyl 4-(1-((5-(5-(difluoromethyl)-1,3,4-oxadiazol-2-yl)pyridin-2-yl)methyl)-1H-1,2,3-triazol-4-yl)-4-fluoropiperidin-1-carboxylate]",> 50000,575,86.9
"CC(C)(C)OC(=O)N1CCC(Cc2cn(Cc3ccc(-c4nnc(C(F)F)o4)cn3)nn2)CC1 [Compound 4000, Tert-butyl 4-((1-((5-(5-(difluoromethyl)-1,3,4-oxadiazol-2-yl)pyridin-2-yl)methyl)-1H-1,2,3-triazol-4-yl)methyl)piperidin-1-carboxylate]",> 50000,145,343
"CC(C)(C)OC(=O)N1CCC(c2cccc(-c3cn(Cc4ccc(-c5nnc(C(F)F)o5)cn4)nn3)c2)CC1 [Compound 4001, tert-butyl 4-(3-(1-((5-(5-(difluoromethyl)-1,3,4-oxadiazol-2-yl)pyridin-2-yl)methyl)-1H-1,2,3-triazol-4-yl)phenyl)piperidin-1-carboxylate]",> 50000,296,169
FC(F)c1nnc(-c2ccc(Cn3cc(C4CCCN(C5COC5)C4)nn3)nc2)o1 (stereo not drawn) [Compound 4003],> 50000,103,484
"CCN1CCC(F)(c2cn(Cc3ccc(-c4nnc(C(F)F)o4)cn3)nn2)CC1 [Compound 4006, 2-(difluoromethyl)-5-(6-((4-(1-ethyl-4-fluoropiperidin-4-yl)-1H-1,2,3-triazol-1-yl)methyl)pyridin-3-yl)-1,3,4-oxadiazole]",> 50000,375,133
"CC(=O)N1CCC(F)(c2cn(Cc3ccc(-c4nnc(C(F)F)o4)cn3)nn2)CC1 [Compound 4009, 1-(4-(1-((5-(5-(difluoromethyl)-1,3,4-oxadiazol-2-yl)pyridin-2-yl)methyl)-1H-1,2,3-triazol-4-yl)-4-fluoropiperidin-1-yl)ethan-1-one]",> 50000,405,123

# Next, values leading:
IC50 [1] [nM],HDAC6 selectivity (fold) [2] [fold],IC50 [2] [nM],Structure (SMILES)
> 50000,841,59.4,"FC(F)c1nnc(-c2ccc(Cn3cc(-c4cccc(CN5CCC5)c4)nn3)nc2)o1 [Compound 3963, 2-(6-((4-(3-(azetidin-1-ylmethyl)phenyl)-1H-1,2,3-triazol-1-yl)methyl)pyridin-3-yl)-5-(difluoromethyl)-1,3,4-oxadiazole]"
> 50000,272,184,"FC(F)c1nnc(-c2ccc(Cc3nnc(-c4ccccc4)o3)cc2)o1 [Compound 3980, 2-(difluoromethyl)-5-(4-((5-phenyl-1,3,4-oxadiazol-2-yl)methyl)phenyl)-1,3,4-oxadiazole]"
> 50000,41,1200,"Cn1c(Cc2ccc(-c3nnc(C(F)F)o3)cc2)nnc1-c1ccccc1 [Compound 3981, 2-(difluoromethyl)-5-(4-((4-methyl-5-phenyl-4H-1,2,4-triazol-3-yl)methyl)phenyl)-1,3,4-oxadiazole]"
> 50000,4716,10.6,"CCN1CCN(c2cccc(-c3cn(Cc4ccc(-c5nnc(C(F)F)o5)cn4)nn3)c2)CC1 [Compound 3988, 2-(difluoromethyl)-5-(6-((4-(3-(4-ethylpiperazin-1-yl)phenyl)-1H-1,2,3-triazol-1-yl)methyl)pyridin-3-yl)-1,3,4-oxadiazole]"
> 50000,1597,31.3,"FC(F)c1nnc(-c2ccc(Cn3cc(-c4cccc(N5CCN(C6COC6)CC5)c4)nn3)nc2)o1 [Compound 3989, 2-(difluoromethyl)-5-(6-((4-(3-(4-(oxetan-3-yl)piperazin-1-yl)phenyl)-1H-1,2,3-triazol-1-yl)methyl)pyridin-3-yl)-1,3,4-oxadiazole]"
> 50000,96,520,"CCN1CCCC(c2cn(Cc3ccc(-c4nnc(C(F)F)o4)cn3)nn2)C1 (stereo not drawn) [Compound 4002, 2-(difluoromethyl)-5-(6-((4-(1-ethylpiperidin-3-yl)-1H-1,2,3-triazol-1-yl)methyl)pyridin-3-yl)-1,3,4-oxadiazole]"
> 50000,150,332,"CC(=O)N1CCCC(c2cn(Cc3ccc(-c4nnc(C(F)F)o4)cn3)nn2)C1 (stereo not drawn) [Compound 4004, 1-(3-(1-((5-(5-(difluoromethyl)-1,3,4-oxadiazol-2-yl)pyridin-2-yl)methyl)-1H-1,2,3-triazol-4-yl)piperidin-1-yl)ethan-1-one]"
> 50000,379,132,"CN1CCC(F)(c2cn(Cc3ccc(-c4nnc(C(F)F)o4)cn3)nn2)CC1 [Compound 4005, 2-(difluoromethyl)-5-(6-((4-(4-fluoro-1-methylpiperidin-4-yl)-1H-1,2,3-triazol-1-yl)methyl)pyridin-3-yl)-1,3,4-oxadiazole]"
> 50000,2873,17.4,"CC(C)N1CCC(F)(c2cn(Cc3ccc(-c4nnc(C(F)F)o4)cn3)nn2)CC1 [Compound 4007, 2-(difluoromethyl)-5-(6-((4-(4-fluoro-1-isopropylpiperidin-4-yl)-1H-1,2,3-triazol-1-yl)methyl)pyridin-3-yl)-1,3,4-oxadiazole]"
> 50000,408,122,"FC(F)c1nnc(-c2ccc(Cn3cc(C4(F)CCN(C5COC5)CC4)nn3)nc2)o1 [Compound 4008, 2-(difluoromethyl)-5-(6-((4-(4-fluoro-1-(oxetan-3-yl)piperidin-4-yl)-1H-1,2,3-triazol-1-yl)methyl)pyridin-3-yl)-1,3,4-oxadiazole]"
> 50000,246,203,"CN1CCC(Cc2cn(Cc3ccc(-c4nnc(C(F)F)o4)cn3)nn2)CC1 [Compound 4014, 2-(difluoromethyl)-5-(6-((4-((1-methylpiperidin-4-yl)methyl)-1H-1,2,3-triazol-1-yl)methyl)pyridin-3-yl)-1,3,4-oxadiazole]"
